In US20240158392A1 (Janssen Biotech, Inc., priority 2021, published 2024):

What follows are compounds tested against SIK2 (Homo sapiens, UniProt Q9H0K1) (assay: SIK2 Enzymatic Assay High Version 2 (High ATP)). Conditions: not given.
Assay type: biochemical
Summary of the method: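 At room temperature, enzyme (6 nM, 2× final) was preincubated with compound for 30 min, then 6 mM ATP and 400 μM HDAC5tide (both 2× final) were added for 2 h. ADP formed was measured by ADP-Glo Max (2 h reagent, 1 h detection) using luminescence.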

SIK2, sequence (Q9H0K1 whole entry, species assumed): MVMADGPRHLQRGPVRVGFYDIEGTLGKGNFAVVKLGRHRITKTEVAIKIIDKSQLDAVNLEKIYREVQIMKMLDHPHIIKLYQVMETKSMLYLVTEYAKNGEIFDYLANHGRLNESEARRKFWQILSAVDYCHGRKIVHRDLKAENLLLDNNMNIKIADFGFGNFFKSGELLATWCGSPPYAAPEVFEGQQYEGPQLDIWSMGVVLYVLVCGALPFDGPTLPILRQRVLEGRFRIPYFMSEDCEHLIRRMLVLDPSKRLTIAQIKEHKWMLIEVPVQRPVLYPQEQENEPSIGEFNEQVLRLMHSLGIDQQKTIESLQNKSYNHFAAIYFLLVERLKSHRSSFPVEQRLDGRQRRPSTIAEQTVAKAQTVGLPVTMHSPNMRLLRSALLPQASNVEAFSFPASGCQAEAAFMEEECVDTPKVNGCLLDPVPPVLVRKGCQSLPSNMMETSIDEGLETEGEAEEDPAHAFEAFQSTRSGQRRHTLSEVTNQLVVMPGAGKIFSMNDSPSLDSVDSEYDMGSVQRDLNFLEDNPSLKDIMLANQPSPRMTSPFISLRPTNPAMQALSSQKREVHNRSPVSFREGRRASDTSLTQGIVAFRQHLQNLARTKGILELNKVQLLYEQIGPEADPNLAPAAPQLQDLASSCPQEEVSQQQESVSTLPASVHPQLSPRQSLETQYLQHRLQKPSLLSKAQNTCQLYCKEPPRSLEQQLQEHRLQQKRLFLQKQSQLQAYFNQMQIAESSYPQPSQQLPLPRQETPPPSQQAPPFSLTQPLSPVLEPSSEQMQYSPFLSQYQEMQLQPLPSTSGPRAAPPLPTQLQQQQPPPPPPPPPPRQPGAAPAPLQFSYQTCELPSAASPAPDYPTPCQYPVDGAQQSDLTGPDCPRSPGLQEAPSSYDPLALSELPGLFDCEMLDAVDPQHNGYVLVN

SMILES | IC50 [µM]
COc1cc(Nc2cc3cc(-c4cc(C)ncc4O[C@H]4C[C@H]5COC[C@@H](C4)N5)ccn3n2)cc(OC)c1C(=O)NC(C)C [Example 340, N-isopropyl-2,6-dimethoxy-4-[[5-[2-methyl-5-[[(1S,5R)-3-oxa-9-azabicyclo[3.3.1]nonan-7-yl]oxy]-4-pyridyl]pyrazolo[1,5-a]pyridin-2-yl]amino]benzamide] | < 0.000847
Cc1cc(-c2ccn3nc(Nc4cc(C(=O)NC(C)C)n(C)n4)cc3c2)c(O[C@H]2C[C@H]3COC[C@@H](C2)N3)cn1 [Example 341, N-isopropyl-2-methyl-5-[[5-[2-methyl-5-[[(1S,5R)-3-oxa-9-azabicyclo[3.3.1]nonan-7-yl]oxy]-4-pyridyl]pyrazolo[1,5-a]pyridin-2-yl]amino]pyrazole-3-carboxamide] | < 0.000847
Cc1cc(-c2ccn3nc(Nc4cc(C)nc(C)n4)cc3c2)c(OC[C@@H]2COC(=O)N2)cn1 [Example 342, (4R)-4-[[4-[2-[(2,6-dimethylpyrimidin-4-yl)amino]pyrazolo[1,5-a]pyridin-5-yl]-6-methyl-3-pyridyl]oxymethyl]oxazolidin-2-one] | 0.032
Cc1cc(-c2cn3cc(Nc4cc(C)nc(C)n4)nc3cn2)c(OC2C[C@H]3COC[C@@H](C2)N3C)cn1 (stereo partly drawn) [Example 349, N-(2,6-dimethylpyrimidin-4-yl)-6-[2-methyl-5-[[(1R,5S)-9-methyl-3-oxa-9-azabicyclo[3.3.1]nonan-7-yl]oxy]-4-pyridyl]imidazo[1,2-a]pyrazin-2-amine] | < 0.000847
Cc1cc(-c2cn3cc(Nc4cc(C)nc(C)n4)nc3cn2)c(O[C@H]2C[C@H]3COC[C@@H](C2)N3)cn1 [Example 350, N-(2,6-dimethylpyrimidin-4-yl)-6-[2-methyl-5-[[(1R,5S)-3-oxa-9-azabicyclo[3.3.1]nonan-7-yl]oxy]-4-pyridyl]imidazo[1,2-a]pyrazin-2-amine] | 0.0403
CNC(=O)c1ccc(Nc2cc3cc(-c4cc(C)ncc4O[C@H]4C[C@H]5COC[C@@H](C4)N5C(C)=O)ccn3n2)nc1 [Example 356, 6-[[5-[5-[[(1S,5R)-9-acetyl-3-oxa-9-azabicyclo[3.3.1]nonan-7-yl]oxy]-2-methyl-4-pyridyl]pyrazolo[1,5-a]pyridin-2-yl]amino]-N-methyl-pyridine-3-carboxamide] | < 0.000847
CNC(=O)c1c(OC)cc(Nc2cc3cc(-c4cc(C)ncc4OC4C[C@H]5COC[C@@H](C4)N5)ccn3n2)cc1OC (stereo partly drawn) [Example 357, 2,6-dimethoxy-N-methyl-4-[[5-[2-methyl-5-[[(1S,5R)-3-oxa-9-azabicyclo[3.3.1]nonan-7-yl]oxy]-4-pyridyl]pyrazolo[1,5-a]pyridin-2-yl]amino]benzamide] | 0.00101
CNC(=O)c1c(C)cc(Nc2cc3cc(-c4cc(C)ncc4O[C@H]4C[C@H]5COC[C@@H](C4)N5C(C)=O)ccn3n2)nc1C [Example 358, 6-[[5-[5-[[(1R,5S,7s)-9-acetyl-3-oxa-9-azabicyclo[3.3.1]nonan-7-yl]oxy]-2-methyl-4-pyridyl]pyrazolo[1,5-a]pyridin-2-yl]amino]-N,2,4-trimethyl-pyridine-3-carboxamide] | 0.00783
Cc1cc(-c2ccn3nc(Nc4cc(C)nc(C)n4)cc3c2)c(OC[C@@H]2CN(C)C(=O)N2)cn1 [Example 365, (4S)-4-[[4-[2-[(2,6-dimethylpyrimidin-4-yl)amino]pyrazolo[1,5-a]pyridin-5-yl]-6-methyl-3-pyridyl]oxymethyl]-1-methyl-imidazolidin-2-one] | < 0.000847
Cc1cc(-c2ccn3nc(Nc4cccc(C(F)(F)F)n4)cc3c2)c(O[C@H]2C[C@H]3COC[C@@H](C2)N3)cn1 [Example 366, 5-[2-methyl-5-[[(1S,5R, 7s)-3-oxa-9-azabicyclo[3.3.1]nonan-7-yl]oxy]-4-pyridyl]-N-[6-(trifluoromethyl)-2-pyridyl]pyrazolo[1,5-a]pyridin-2-amine] | 0.00156
CNC(=O)c1cccc(Nc2cc3cc(-c4cc(C)ncc4O[C@H]4C[C@H]5COC[C@@H](C4)N5)ccn3n2)n1 [Example 367, N-methyl-6-[[5-[2-methyl-5-[[(1S,5R,7s)-3-oxa-9-azabicyclo[3.3.1]nonan-7-yl]oxy]-4-pyridyl]pyrazolo[1,5-a]pyridin-2-yl]amino]pyridine-2-carboxamide] | 0.00681
Cc1cc(-c2ccn3nc(Nc4ccnnc4)cc3c2)c(O[C@H]2C[C@H]3COC[C@@H](C2)N3)cn1 [Example 368, 5-[2-methyl-5-[[(1S,5R,7s)-3-oxa-9-azabicyclo[3.3.1]nonan-7-yl]oxy]-4-pyridyl]-N-pyridazin-4-yl-pyrazolo[1,5-a]pyridin-2-amine] | < 0.000847
Cc1cc(-c2ccn3nc(Nc4ccc(C(=O)NCCO)cn4)cc3c2)c(O[C@H]2C[C@H]3COC[C@@H](C2)N3)cn1 [Example 369, N-(2-hydroxyethyl)-6-[[5-[2-methyl-5-[[(1S,5R,7s)-3-oxa-9-azabicyclo[3.3.1]nonan-7-yl]oxy]-4-pyridyl]pyrazolo[1,5-a]pyridin-2-yl]amino]pyridine-3-carboxamide] | 0.00164
Cc1cc(-c2ccn3nc(Nc4ccc(C(=O)O)cn4)cc3c2)c(O[C@H]2C[C@H]3COC[C@@H](C2)N3)cn1 [Example 370, 6-[[5-[2-methyl-5-[[(1S,5R,7s)-3-oxa-9-azabicyclo[3.3.1]nonan-7-yl]oxy]-4-pyridyl]pyrazolo[1,5-a]pyridin-2-yl]amino]pyridine-3-carboxylic Acid] | < 0.000847
Cc1cc(-c2ccn3nc(Nc4ccc(C(=O)NCC(C)(C)O)cn4)cc3c2)c(O[C@H]2C[C@H]3COC[C@@H](C2)N3)cn1 [Example 371, N-(2-hydroxy-2-methyl-propyl)-6-[[5-[2-methyl-5-[[(1S,5R,7s)-3-oxa-9-azabicyclo[3.3.1]nonan-7-yl]oxy]-4-pyridyl]pyrazolo[1,5-a]pyridin-2-yl]amino]pyridine-3-carboxamide] | < 0.000847
Cc1cc(-c2ccn3nc(Nc4ccnc(C)n4)cc3c2)c(O[C@H]2C[C@H]3COC[C@@H](C2)N3)cn1 [Example 372, 5-[2-methyl-5-[[(1S,5R,7s)-3-oxa-9-azabicyclo[3.3.1]nonan-7-yl]oxy]-4-pyridyl]-N-(2-methylpyrimidin-4-yl)pyrazolo[1,5-a]pyridin-2-amine] | < 0.000847
Cc1cc(-c2ccn3nc(Nc4ccc(C(=O)NCC5CCOCC5)cn4)cc3c2)c(O[C@H]2C[C@H]3COC[C@@H](C2)N3)cn1 [Example 373, 6-[[5-[2-methyl-5-[[(1R,5S,7s)-3-oxa-9-azabicyclo[3.3.1]nonan-7-yl]oxy]-4-pyridyl]pyrazolo[1,5-a]pyridin-2-yl]amino]-N-(tetrahydropyran-4-ylmethyl)pyridine-3-carboxamide] | < 0.000847
Cc1cc(-c2ccn3nc(Nc4ccc(C(F)(F)F)cn4)cc3c2)c(O[C@H]2C[C@H]3COC[C@@H](C2)N3)cn1 [Example 374, 5-[2-methyl-5-[[(1S,5R,7s)-3-oxa-9-azabicyclo[3.3.1]nonan-7-yl]oxy]-4-pyridyl]-N-[5-(trifluoromethyl)-2-pyridyl]pyrazolo[1,5-a]pyridin-2-amine] | < 0.000847
Cc1cc(-c2ccn3nc(Nc4cnc(C(F)(F)F)cn4)cc3c2)c(O[C@H]2C[C@H]3COC[C@@H](C2)N3)cn1 [Example 375, 5-(5-(((1R,5S,7s)-3-oxa-9-azabicyclo[3.3.1]nonan-7-yl)oxy)-2-methylpyridin-4-yl)-N-(5-(trifluoromethyl)pyrazin-2-yl)pyrazolo[1,5-a]pyridin-2-amine] | 0.00115

Same assay, conditions: enzyme 6 nM, 6 mM ATP and 400 μM HDAC5tide (each 2× final concentration); 30 minutes pre-incubation, 2 hours; ADP-Glo Max luminescence; read-out: SIK2 high ATP IC50 (μM) (Test Example 2)

SMILES | IC50 [µM]
Cc1cc(-c2ccn3nc(Nc4cc(C)nc(C)n4)cc3c2)c(O[C@H]2CC[C@H](C(N)=O)CC2)cn1 [Example 343, 4-[[4-[2-[(2,6-dimethylpyrimidin-4-yl)amino]pyrazolo[1,5-a]pyridin-5-yl]-6-methyl-3-pyridyl]oxy]cyclohexanecarboxamide] | 0.0376
Cc1cc(-c2ccn3nc(Nc4cc(C)nc(C)n4)cc3c2)c(O[C@@H]2CCS(=O)(=O)C2)cn1 [Example 344, N-(2,6-dimethylpyrimidin-4-yl)-5-[5-[(3R)-1,1-dioxothiolan-3-yl]oxy-2-methyl-4-pyridyl]pyrazolo[1,5-a]pyridin-2-amine] | 0.00362
Cc1cc(-c2ccn3nc(Nc4ccc(C(=O)NC(C)C)c(C)c4)cc3c2)c(OCC(C)(C)O)cn1 [Example 345, 4-[[5-[5-(2-hydroxy-2-methyl-propoxy)-2-methyl-4-pyridyl]pyrazolo[1,5-a]pyridin-2-yl]amino]-N-isopropyl-2-methyl-benzamide] | 0.0306
Cc1cc(-c2ccn3nc(Nc4cc(C)nc(C)n4)cc3c2)c(OCC(C)(C)N)cn1 [Example 359, 5-[5-(2-amino-2-methyl-propoxy)-2-methyl-4-pyridyl]-N-(2,6-dimethylpyrimidin-4-yl)pyrazolo[1,5-a]pyridin-2-amine] | 0.0271
CC(=O)NC(C)(C)COc1cnc(C)cc1-c1ccn2nc(Nc3cc(C)nc(C)n3)cc2c1 [Example 360, N-[2-[[4-[2-[(2,6-dimethylpyrimidin-4-yl)amino]pyrazolo[1,5-a]pyridin-5-yl]-6-methyl-3-pyridyl]oxy]-1,1-dimethyl-ethyl]acetamide] | 0.0058
Cc1cc(-c2ccn3nc(Nc4cc(C)nc(C)n4)cc3c2)c(OCC(C)(C)NS(C)(=O)=O)cn1 [Example 361, N-[2-[[4-[2-[(2,6-dimethylpyrimidin-4-yl)amino]pyrazolo[1,5-a]pyridin-5-yl]-6-methyl-3-pyridyl]oxy]-1,1-dimethyl-ethyl]methanesulfonamide] | 0.00703
CC#Cc1cc(-c2ccn3nc(Nc4cc(C)nc(C)n4)cc3c2)c(N[C@H]2CC[C@@H](O)CC2)cn1 [Example 362, 4-[[4-[2-[(2,6-dimethylpyrimidin-4-yl)amino]pyrazolo[1,5-a]pyridin-5-yl]-6-prop-1-ynyl-3-pyridyl]amino]cyclohexanol] | 0.016
